Where two headings read alike, the source gives them in different places.
Experiments:
Type in all cases: cell-based
CCRF-CEM = assay: NCI in vitro cytotoxicity (SRB, 48 h), Leukemia panel; details: Homo sapiens, 48 h exposure
MOLT-4 = assay: as above; details: Homo sapiens; MOLT-4, Leukemia; 48 h exposure
HL-60(TB) = assay: as above; details: Homo sapiens, 48 h exposure
Procedure: (§1) The imidazothiazole-chalcone hybrids 7a, 7e, 7f, 8f and 19e have been tested against sixty human tumour cell lines derived from nine cancer types (leukemia, non-small cell lung cancer, colon cancer, CNS cancer, melanoma, ovarian cancer, renal cancer, prostate cancer and breast cancer) as per NCI protocol. For each compound, dose response curves for individual cell lines have been measured at a minimum of five concentrations at 10 fold dilutions. A protocol of 48 h continuous drug exposure has been used, and a sulforhodamine B (SRB) protein assay was used to estimate cell viability or growth. The concentration for 50% cell growth inhibition (GI50), total cell growth inhibition (TGI, 0% growth) and 50% cell death (LC50, […]) compared with the control has been calculated (Table-1).

SR = assay: as above; details: Homo sapiens, 48 h exposure
Procedure: as §1

A549/ATCC = assay: NCI in vitro cytotoxicity (SRB, 48 h), Non-small cell lung panel; details: Homo sapiens, 48 h exposure
NCI-H322M = assay: as above; details: Homo sapiens, 48 h exposure
NCI-H522 = assay: as above; details: Homo sapiens, 48 h exposure
HCC-2998 = assay: NCI in vitro cytotoxicity (SRB, 48 h), Colon panel; details: Homo sapiens; HCC-2998, Colon; 48 h exposure
HCT-116 = assay: NCI in vitro cytotoxicity (SRB, 48 h), Colon panel; details: Homo sapiens
HT29 = assay: NCI in vitro cytotoxicity (SRB, 48 h), Colon panel; details: Homo sapiens, HT-29, 48 h exposure
KM12 = assay: NCI in vitro cytotoxicity (SRB, 48 h), Colon panel; details: Homo sapiens, 48 h exposure
SF-268 = assay: NCI in vitro cytotoxicity (SRB, 48 h), CNS panel; details: Homo sapiens; SF-268, CNS; 48 h exposure
SF-295 = assay: NCI in vitro cytotoxicity (SRB, 48 h), CNS panel; details: Homo sapiens; SF-295, CNS; 48 h exposure
SNB-19 = assay: NCI in vitro cytotoxicity (SRB, 48 h), CNS panel; details: Homo sapiens; SNB-19, CNS; 48 h exposure
SNB-75 = assay: NCI in vitro cytotoxicity (SRB, 48 h), CNS panel; details: Homo sapiens; SNB-75, CNS; 48 h exposure
U251 = assay: NCI in vitro cytotoxicity (SRB, 48 h), CNS panel; details: Homo sapiens, U-251, 48 h exposure
OVCAR-3 = assay: NCI in vitro cytotoxicity (SRB, 48 h), Ovarian panel; details: Homo sapiens; OVCAR-3, Ovarian; 48 h exposure
OVCAR-4 = assay: as above; details: Homo sapiens; OVCAR-4, Ovarian; 48 h exposure
OVCAR-8 = assay: as above; details: Homo sapiens; OVCAR-8, Ovarian; 48 h exposure
NCI/ADR-RES = assay: as above; details: Homo sapiens, 48 h exposure
SN12C = assay: NCI in vitro cytotoxicity (SRB, 48 h), Renal panel; details: Homo sapiens, 48 h exposure
TK-10 = assay: NCI in vitro cytotoxicity (SRB, 48 h), Renal panel; details: Homo sapiens; TK-10, Renal; 48 h exposure
UO-31 = assay: NCI in vitro cytotoxicity (SRB, 48 h), Renal panel; details: Homo sapiens; UO-31, Renal; 48 h exposure
HS 578T = assay: NCI in vitro cytotoxicity (SRB, 48 h), Breast panel; details: Homo sapiens, 48 h exposure
T-47D = assay: as above; details: Homo sapiens, T47D, 48 h exposure
MDA-MB-468 = assay: as above; details: Homo sapiens; MDA-MB-468, Breast; 48 h exposure
LOX IMVI = assay: NCI in vitro cytotoxicity (SRB, 48 h), Melanoma panel; details: Homo sapiens, 48 h exposure
M14 = assay: as above; details: Homo sapiens, 48 h exposure
SK-MEL-5 = assay: as above; details: Homo sapiens; SK-MEL-5, Melanoma; 48 h exposure
Leukemia cell lines = assay: NCI in vitro cytotoxicity, whole panel; details: Homo sapiens
Colon cancer cell lines = assay: NCI in vitro cytotoxicity, whole panel; details: Homo sapiens
Melanoma cell lines = assay: NCI in vitro cytotoxicity, whole panel; details: Homo sapiens
Renal cancer cell lines = assay: NCI in vitro cytotoxicity, whole panel; details: Homo sapiens
[1] = test system: Prostate cancer cell lines; assay: NCI in vitro cytotoxicity, whole panel; details: Homo sapiens
Breast cancer cell lines = assay: NCI in vitro cytotoxicity, whole panel; details: Homo sapiens

## COc1cc(C(=O)/C=C/c2c(-c3ccc(F)cc3)nc3sccn23)cc(OC)c1OC [Compound 7e, (E)-3-(6-(4-fluorophenyl)imidazo[2,1-b]thiazol-5-yl)-1-(3,4,5-trimethoxyphenyl)prop-2-en-1-one]
CCRF-CEM
  GI50: 2230 nM
MOLT-4
  GI50: 2070 nM
HL-60(TB)
  GI50: 1770 nM
SR
  GI50: 1730 nM
A549/ATCC
  GI50: 2090 nM
NCI-H322M
  GI50: 3630 nM
NCI-H522
  GI50: 2320 nM
HCC-2998
  GI50: 2110 nM
HCT-116; HCT-116, HCT116, Table 4, read-out: Comparative efficacy
  IC50: 2330 nM
HCT-116; HCT-116, Colon, 48 h exposure
  GI50: 2330 nM
HT29
  GI50: 2840 nM
KM12
  GI50: 2300 nM
SF-268
  GI50: 2520 nM
SF-295
  GI50: 1800 nM
SNB-19
  GI50: 3730 nM
SNB-75
  GI50: 2460 nM
U251
  GI50: 2180 nM
OVCAR-3
  GI50: 2160 nM
OVCAR-4
  GI50: 3780 nM
OVCAR-8
  GI50: 1980 nM
NCI/ADR-RES
  GI50: 2100 nM
SN12C
  GI50: 1880 nM
TK-10
  GI50: 5810 nM
UO-31
  GI50: 2030 nM
HS 578T
  GI50: 2050 nM
T-47D
  GI50: 3250 nM
MDA-MB-468
  GI50: 3170 nM
LOX IMVI
  GI50: 1850 nM
M14
  GI50: 2750 nM
SK-MEL-5
  GI50: 1450 nM
Leukemia cell lines; Leukemia, average of six to eight cell lines, read-out: Log10 GI50 (converted)
  GI50: 1860 nM
Leukemia cell lines; Leukemia, average of six to eight cell lines, read-out: Log10 LC50 (converted)
  CC50: 70800 nM
Leukemia cell lines; exposure period of at least 48 hrs, read-out: GI50, range over leukemia cell lines
  GI50: 1550 to 2230 nM
Colon cancer cell lines; Colon, average of six to eight cell lines, read-out: Log10 GI50 (converted)
  GI50: 2630 nM
Colon cancer cell lines; Colon, average of six to eight cell lines, read-out: Log10 LC50 (converted)
  CC50: 38000 nM
Colon cancer cell lines; exposure period of at least 48 hrs, read-out: GI50, range over colon cell lines
  GI50: 2110 to 2990 nM
Melanoma cell lines; Melanoma, average of six to eight cell lines, read-out: Log10 GI50 (converted)
  GI50: 2630 nM
Melanoma cell lines; Melanoma, average of six to eight cell lines, read-out: Log10 LC50 (converted)
  CC50: 42700 nM
Melanoma cell lines; exposure period of at least 48 hrs, read-out: GI50, range over melanoma cell lines
  GI50: 1820 to 8270 nM
Renal cancer cell lines; Renal, average of six to eight cell lines, read-out: Log10 GI50 (converted)
  GI50: 1550 nM
Renal cancer cell lines; Renal, average of six to eight cell lines, read-out: Log10 LC50 (converted)
  CC50: 87100 nM
Renal cancer cell lines; exposure period of at least 48 hrs, read-out: GI50, range over renal cell lines
  GI50: 40 to 5810 nM
[1]; Prostate cell, exposure period of at least 48 hrs, read-out: GI50, range over prostate cell lines
  GI50: 2450 to 3430 nM
[1]; Prostate, average of the panel's cell lines, read-out: Log10 GI50 (converted)
  GI50: 2950 nM
[1]; Prostate, average of the panel's cell lines, read-out: Log10 LC50 (converted)
  LC50: ≥ 100000 nM
Breast cancer cell lines; Breast, average of six to eight cell lines, read-out: Log10 GI50 (converted)
  GI50: 2820 nM
Breast cancer cell lines; Breast, average of six to eight cell lines, read-out: Log10 LC50 (converted)
  CC50: ≥ 100000 nM
Breast cancer cell lines; exposure period of at least 48 hrs, read-out: IC50, range over breast cell lines
  IC50: 2050 to 3760 nM

Reference: patent US8916711B2, “Imidazothiazole-chalcone derivatives as potential anticancer agents and process for the preparation thereof” (Council of Scientific and Industrial Research, priority 2009, dated 2014)
